The text below walks through data of US10857112B2, “Small molecule inhibitors of RNA binding motif (RBM) proteins for the treatment of acute cellular injury” (University of Pittsburgh—Of the Commonwealth System of …, priority 2012, dated 2020).

In series [1] the test system is primary rat cortical neurons. In words: H2O2 injury, neuronal viability 24 h (CellTiter-Blue). Particulars: 40 μM H2O2. For orientation: Resazurin is reduced to fluorescent resorufin, in cell work by metabolically active cells.
For series [2], the target named is T1, recombinant active caspase-3 (Homo sapiens, UniProt P42574).
T1 construct: The reaction mixture was combined with recombinant active caspase-3 and a DEVD-AFC probe; purchased PromoKine (Heidelberg, Germany)
T1 sequence (P42574 29-175 limits assumed): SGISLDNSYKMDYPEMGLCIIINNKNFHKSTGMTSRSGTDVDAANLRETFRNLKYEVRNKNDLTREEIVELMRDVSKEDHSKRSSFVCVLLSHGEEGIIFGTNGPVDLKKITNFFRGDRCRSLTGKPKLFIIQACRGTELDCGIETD
T1 sequence (P42574 176-277 limits assumed): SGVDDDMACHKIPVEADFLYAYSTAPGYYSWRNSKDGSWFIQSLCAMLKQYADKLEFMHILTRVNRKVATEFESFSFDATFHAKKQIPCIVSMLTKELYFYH
As to the kind of experiment: In vitro cell-free caspase-3 drug screening assay (DEVD-AFC). The class given is biochemical.
Procedure: An in vitro caspase drug screening kit was purchased from PromoKine (Heidelberg, Germany), and used according to the manufacturer's instructions. Briefly, all drugs were dissolved in DMSO and diluted in double-distilled water to desired concentration. The reaction mixture was combined with recombinant active caspase-3 and a DEVD-AFC probe. Active caspase-3 cleaves the DEVD-recognition sequence and releases fluorescent AFC. The amount of AFC detected is a measure of caspase-3 activity. Reactions were prepared in black-walled 96-well plates, incubated at 37° C., and AFC release measured with an AFC filter (Ex: 405 nm, Em: 495-505 nM) on a GLOMax-Multi Microplate Reader (Promega).

Another series relates to AKT. In words: Western blot of AKT activation (pAKT473). It counts as cell-based, rat. Particulars: 50 μM; baseline and 250 nM STS 6 hours. As for the experimental part: AKT is a key pro-survival kinase that is dysregulated by acute brain injury. Many diverse therapies used to prevent neuronal death activate AKT, including small molecules, endogenously derived survival proteins, and other non-pharmacology based treatments like therapeutic hypothermia. To further elucidate the mechanisms of AQ2S-mediated neuroprotection, the level of activated (phosphorylated) AKT was measured by western blot.
Neurons used for Western blot analysis for grown in 6-well plates. Briefly, neurons were treated with experimental compounds for the indicated time/conditions. At the end of each experiment, neurons were washed in ice cold PBS and harvested in 65 μL RIPA buffer containing protease inhibitors, phosphatase inhibitors, and EDTA. Extracts were collected in 0.5 mL tubes and sonicated for 20-30 seconds. Cell extracts were then spun at 4° C./16,000 g/10 minutes and stored at −80° C. until use. Frozen extracts were thawed on ice and protein concentration measured using the BCA assay (PIERCE). […] of sample protein was loaded per well of a 7.5% SDS precast gel (Biorad), and run for 30 minutes to 1 hour at 200 V. Kaleidoscope protein standards (Biorad) were run parallel to neuron extracts. Proteins were then transferred to PDVF membranes (run at 100 V/4° C./1.5 hours). PDVF membranes were washed once in tris buffered saline (TBS) and blocked for 1 hour in tris buffered saline/tween-20 with 7.5% nonfat milk (TBS-T/milk). Blots were incubated overnight at 4° C. with primary antibodies in TBS-T/milk. Cell Signaling Technology: phospho-AKT473, AKT Total, phospho-ERK1/2, ERK Total, cleavage caspase-3. Santa Cruz Antibodies: NF-κB p50 subunit, NF-κB p65 subunit, and beta actin. Calbiochem: 4-HNE antibody. Blots were washed 3 times (5 minutes each) with TBS, and incubated with secondary antibodies for 2 hours. Invitrogen: goat anti-rabbit or goat anti-mouse. Blots were washed 3 times (5 minutes each) with TBS, and incubated for 1 minute in HRP detection solution (Amersham). Films were exposed to blots and developed (SRX-101A, Konica Minolta Medical & Graphic Inc.). Re-probed blots (e.g. beta actin, AKT total, ERK total) were stripped in western blot stripping buffer (Fischer Scientific) for 10 minutes, washed once with TBS, re-blocked in TBS-T/milk for 1 hour, and incubated overnight with new primary antibody. Films were scanned (EPSON GT 20,000), and densitometry performed using UN-SCAN-IT software (Silk Scientific).
(In western blotting, separated proteins are transferred to a membrane and probed.)

In the next series the test system is PI3K. The settings on record: studies in cancer cells; cited from earlier work.
Series [3] concerns primary rat cortical neurons. In words: STS injury, neuronal viability and cytotoxicity.
Procedure: At D.I.V. 11, ½ media was collected (conditioned media) and mixed with an equal volume fresh neurobasal media (to make the 24 hour treatment media). STS was prepared at the desired concentration in treatment media, with or without experimental drugs (AQ2S or LY294002). The remaining growth maintenance media was replaced with 100 μL, of treatment media per well of a 96-well plate (or 2 mL for a six-well plate) for 24 hours.
The LDH Cytotoxicity Assay Kit II was purchased from Abcam (Cambridge, Mass., USA). Neurons were cultured in 96-well format and subjected to STS injury ±AQ2S for 24 hours (in 100 μL, total media volume). At 23 hours maximum LDH release (positive control) was prepared by adding 10 μL, cell lysis reagent directly to a few non-injured wells (i.e., no STS or AQ2S). At the end of the 24 hour injury period, 80 μL, of media was transferred to a new 96-well plate. Plates were spun at ˜500 g for 5 minutes. 10 μL, of cell culture treatment media was added to a new black-walled plate and advanced WST detection reagent added. The mix was incubated for ˜15 minutes and absorbance measured (OD 450 nm). Fresh culture media was used as a negative control. Cytotoxicity was calculated using the standard formula: cytotoxicity %=(sample LDH−negative-control LDH)/(maximum LDH release−negative-control LDH)×100.
A further series is described as follows: in vitro. The settings on record: rat, decrease in neuronal viability, 250 nM STS alone.

Turning to `O=C1c2c(O)cccc2C([C@@H]2O[C@H](CO)[C@@H](O)[C@H](O)[C@H]2O)c2cc(CO)cc(O)c21` (some centres unmarked) [aloin], in series [1] (post-treatment, any concentration tested, 24 hours post-injury), the “neuronal death after H2O2 injury” value is on record as “ineffective at any concentration tested”.
For orientation: IC50 means the concentration needed to halve the response being measured. `Cc1cc(O)c2c(c1)C(=O)c1cc(O)cc(O)c1C2=O` [emodin, 6-methyl-1,3,8-trihydroxyanthraquinone]: the “activity of recombinant caspase-3” value in series [2] is “not a direct caspase inhibitor in the cell-free assay”. Besides, in the series with AKT, the pAKT473 entry is “abolished baseline and injury induced AKT activation”. In addition, the IC50 in the series on PI3K is 3.3 µM. The “neuronal death after H2O2 injury” value in series [1] (post-treatment 5 μM, 24 h) is listed as “failed to protect neurons”; in series [1] (post-treatment 25 μM, 24 h), “failed to protect neurons”; in series [1] (post-treatment 50 μM, 24 h), “exacerbated cell death”.
In the case of ZVAD-fmk [reference compound], the “activity of recombinant caspase-3” value in series [2] is “significantly reduced the activity of recombinant caspase-3”. In addition, in series [3] (250 nM STS co-administered 24 hours), the “cell viability, comparison of neuroprotectants” value is “increased cell viability”.
The compound `CN[C@@H]1C[C@H]2O[C@@](C)([C@@H]1OC)n1c3ccccc3c3c4c(c5c6ccccc6n2c5c31)C(=O)NC4` [STS, staurosporine, reference compound] displayed a cytotoxicity at 24 h, 250 nM in the series “in vitro” of 81.1%. Further, the “decrease in neuronal viability” value in series [3] (250 nM STS alone, 24 h) is listed as 71.5%.
